Reference: patent US20110071108A1, “Beta-Cyclodextrin Derivatives as Antibacterial Agents” (Pinnacle Pharmaceuticals, Inc., priority 2005, published 2011)

What was measured:
Assay in all cases: Bacterial panel testing, MIC by broth microdilution
Assay type in all cases: cell-based
Details in all cases: 20-24 hours growth
Pseudomonas aeruginosa = tested on: Pseudomonas aeruginosa
In short: (§1)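 Bacteria are cultured briefly at 37° C, standardized to McFarland density and diluted into Mueller-Hinton or Brain Heart infusion media. Compound from a 10 μg/ml DMSO solution is serially diluted twofold in this inoculated medium, and growth inhibition is scored as clear wells after 20-24 h.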

Salmonella choleraesuis = tested on: Salmonella choleraesuis
In short: as §1

Staphylococcus aureus = tested on: Staphylococcus aureus
In short: as §1

Enterococcus faecium = tested on: Enterococcus faecium
In short: as §1

Eschericia coli = tested on: Eschericia coli
In short: as §1

Bacillus atrophaeus = tested on: Bacillus atrophaeus
In short: as §1

SMILES	MIC PA (Pseudomonas aeruginosa) [µg/mL]	MIC SC (Salmonella choleraesuis) [µg/mL]	MIC SA (Staphylococcus aureus) [µg/mL]	MIC EF (Enterococcus faecium) [µg/mL]	MIC EC (Eschericia coli) [µg/mL]	MIC BA (Bacillus atrophaeus) [µg/mL]
C[C@H](N)C(=O)NC[C@H]1O[C@@H]2O[C@H]3[C@H](O)[C@@H](O)[C@@H](O[C@H]4[C@H](O)[C@@H](O)[C@@H](O[C@H]5[C@H](O)[C@@H](O)[C@@H](O[C@H]6[C@H](O)[C@@H](O)[C@@H](O[C@H]7[C@H](O)[C@@H](O)[C@@H](O[C@H]8[C@H](O)[C@@H](O)[C@@H](O[C@H]1[C@H](O)[C@H]2O)O[C@@H]8CNC(=O)[C@H](C)N)O[C@@H]7CNC(=O)[C@H](C)N)O[C@@H]6CNC(=O)[C@H](C)N)O[C@@H]5CNC(=O)[C@H](C)N)O[C@@H]4CNC(=O)[C@H](C)N)O[C@@H]3CNC(=O)[C@H](C)N.Cl.Cl.Cl.Cl.Cl.Cl.Cl	>200	>200	>200	>200	>200	–
Cl.Cl.Cl.Cl.Cl.Cl.Cl.N=C(N)NCCCSC[C@H]1O[C@@H]2O[C@H]3[C@H](O)[C@@H](O)[C@@H](O[C@H]4[C@H](O)[C@@H](O)[C@@H](O[C@H]5[C@H](O)[C@@H](O)[C@@H](O[C@H]6[C@H](O)[C@@H](O)[C@@H](O[C@H]7[C@H](O)[C@@H](O)[C@@H](O[C@H]8[C@H](O)[C@@H](O)[C@@H](O[C@H]1[C@H](O)[C@H]2O)O[C@@H]8CSCCCNC(=N)N)O[C@@H]7CSCCCNC(=N)N)O[C@@H]6CSCCCNC(=N)N)O[C@@H]5CSCCCNC(=N)N)O[C@@H]4CSCCCNC(=N)N)O[C@@H]3CSCCCNC(=N)N	>200	>200	>200	>200	>200	–
Cl.Cl.Cl.Cl.Cl.Cl.Cl.N[C@@H](CC(=O)OCc1ccccc1)C(=O)NC[C@H]1O[C@@H]2O[C@H]3[C@H](O)[C@@H](O)[C@@H](O[C@H]4[C@H](O)[C@@H](O)[C@@H](O[C@H]5[C@H](O)[C@@H](O)[C@@H](O[C@H]6[C@H](O)[C@@H](O)[C@@H](O[C@H]7[C@H](O)[C@@H](O)[C@@H](O[C@H]8[C@H](O)[C@@H](O)[C@@H](O[C@H]1[C@H](O)[C@H]2O)O[C@@H]8CNC(=O)[C@@H](N)CC(=O)OCc1ccccc1)O[C@@H]7CNC(=O)[C@@H](N)CC(=O)OCc1ccccc1)O[C@@H]6CNC(=O)[C@@H](N)CC(=O)OCc1ccccc1)O[C@@H]5CNC(=O)[C@@H](N)CC(=O)OCc1ccccc1)O[C@@H]4CNC(=O)[C@@H](N)CC(=O)OCc1ccccc1)O[C@@H]3CNC(=O)[C@@H](N)CC(=O)OCc1ccccc1	>200	>200	>200	>200	>200	–
Cl.Cl.Cl.Cl.Cl.Cl.Cl.NCCCCCSC[C@H]1O[C@@H]2O[C@H]3[C@H](O)[C@@H](O)[C@@H](O[C@H]4[C@H](O)[C@@H](O)[C@@H](O[C@H]5[C@H](O)[C@@H](O)[C@@H](O[C@H]6[C@H](O)[C@@H](O)[C@@H](O[C@H]7[C@H](O)[C@@H](O)[C@@H](O[C@H]8[C@H](O)[C@@H](O)[C@@H](O[C@H]1[C@H](O)[C@H]2O)O[C@@H]8CSCCCCCN)O[C@@H]7CSCCCCCN)O[C@@H]6CSCCCCCN)O[C@@H]5CSCCCCCN)O[C@@H]4CSCCCCCN)O[C@@H]3CSCCCCCN	>200	>200	>200	>200	>200	–
Cl.Cl.Cl.Cl.Cl.Cl.Cl.N[C@@H](Cc1ccc(O)cc1)C(=O)NC[C@H]1O[C@@H]2O[C@H]3[C@H](O)[C@@H](O)[C@@H](O[C@H]4[C@H](O)[C@@H](O)[C@@H](O[C@H]5[C@H](O)[C@@H](O)[C@@H](O[C@H]6[C@H](O)[C@@H](O)[C@@H](O[C@H]7[C@H](O)[C@@H](O)[C@@H](O[C@H]8[C@H](O)[C@@H](O)[C@@H](O[C@H]1[C@H](O)[C@H]2O)O[C@@H]8CNC(=O)[C@@H](N)Cc1ccc(O)cc1)O[C@@H]7CNC(=O)[C@@H](N)Cc1ccc(O)cc1)O[C@@H]6CNC(=O)[C@@H](N)Cc1ccc(O)cc1)O[C@@H]5CNC(=O)[C@@H](N)Cc1ccc(O)cc1)O[C@@H]4CNC(=O)[C@@H](N)Cc1ccc(O)cc1)O[C@@H]3CNC(=O)[C@@H](N)Cc1ccc(O)cc1	>200	>200	>200	>200	>200	–
Cl.Cl.Cl.Cl.Cl.Cl.Cl.NC(CCC(=O)OCc1ccccc1)C(=O)NCC1OC2OC3C(CNC(=O)C(N)CCC(=O)OCc4ccccc4)OC(OC4C(CNC(=O)C(N)CCC(=O)OCc5ccccc5)OC(OC5C(CNC(=O)C(N)CCC(=O)OCc6ccccc6)OC(OC6C(CNC(=O)C(N)CCC(=O)OCc7ccccc7)OC(OC7C(CNC(=O)C(N)CCC(=O)OCc8ccccc8)OC(OC8C(CNC(=O)C(N)CCC(=O)OCc9ccccc9)OC(OC1C(O)C2O)C(O)C8O)C(O)C7O)C(O)C6O)C(O)C5O)C(O)C4O)C(O)C3O (stereo not shown)	>200	>200	>200	>200	>200	–
Cl.Cl.Cl.Cl.Cl.Cl.Cl.NC(CS)C(=O)NCC1OC2OC3C(CNC(=O)C(N)CS)OC(OC4C(CNC(=O)C(N)CS)OC(OC5C(CNC(=O)C(N)CS)OC(OC6C(CNC(=O)C(N)CS)OC(OC7C(CNC(=O)C(N)CS)OC(OC8C(CNC(=O)C(N)CS)OC(OC1C(O)C2O)C(O)C8O)C(O)C7O)C(O)C6O)C(O)C5O)C(O)C4O)C(O)C3O (stereo not shown)	>200	>200	>200	>200	>200	–
CN(C)CCNCC(=O)NCC1OC2OC3C(CNC(=O)CNCCN(C)C)OC(OC4C(CNC(=O)CNCCN(C)C)OC(OC5C(CNC(=O)CNCCN(C)C)OC(OC6C(CNC(=O)CNCCN(C)C)OC(OC7C(CNC(=O)CNCCN(C)C)OC(OC8C(CNC(=O)CNCCN(C)C)OC(OC1C(O)C2O)C(O)C8O)C(O)C7O)C(O)C6O)C(O)C5O)C(O)C4O)C(O)C3O.Cl.Cl.Cl.Cl.Cl.Cl.Cl (stereo not shown)	–	>200	>200	>200	>200	>200
CCCCCCCCCCCCNCC1OC2OC3C(CNCCCCCCCCCCCC)OC(OC4C(CNCCCCCCCCCCCC)OC(OC5C(CNCCCCCCCCCCCC)OC(OC6C(CNCCCCCCCCCCCC)OC(OC7C(CNCCCCCCCCCCCC)OC(OC8C(CNCCCCCCCCCCCC)OC(OC1C(O)C2O)C(O)C8O)C(O)C7O)C(O)C6O)C(O)C5O)C(O)C4O)C(O)C3O (stereo not shown)	>200	>200	–	>200	>200	>200
CCCCCCCCCCCCCCCCNCC1OC2OC3C(CNCCCCCCCCCCCCCCCC)OC(OC4C(CNCCCCCCCCCCCCCCCC)OC(OC5C(CNCCCCCCCCCCCCCCCC)OC(OC6C(CNCCCCCCCCCCCCCCCC)OC(OC7C(CNCCCCCCCCCCCCCCCC)OC(OC8C(CNCCCCCCCCCCCCCCCC)OC(OC1C(O)C2O)C(O)C8O)C(O)C7O)C(O)C6O)C(O)C5O)C(O)C4O)C(O)C3O (stereo not shown)	>200	>200	–	>200	>200	>200
CC(CCN)CCSCC1OC2OC3C(CSCCC(C)CCN)OC(OC4C(CSCCC(C)CCN)OC(OC5C(CSCCC(C)CCN)OC(OC6C(CSCCC(C)CCN)OC(OC7C(CSCCC(C)CCN)OC(OC8C(CSCCC(C)CCN)OC(OC1C(O)C2O)C(O)C8O)C(O)C7O)C(O)C6O)C(O)C5O)C(O)C4O)C(O)C3O.Cl.Cl.Cl.Cl.Cl.Cl.Cl (stereo not shown)	>100	>100	>100	>100	>100	–
